Measurements published in paper PMC8063026 (Frontiers in Pharmacology, 2021).
Like-named read-outs stand apart in the source and are kept apart here.

Assays:
DAT [1] = target: T1, DAT (Homo sapiens, UniProt Q01959); assay: cell-based
T1 construct: expressed in transfected cells

human NET = target: T2, human NET (Homo sapiens, UniProt P23975); assay: cell-based
T2 construct: expressed in transfected cells

SERT [2] = target: T3, SERT (Homo sapiens, UniProt P31645); assay: Uptake-inhibition of [3H]5-HT in HEK293 cells stably expressing human SERT; assay type: cell-based
T3 construct: expressed in transfected cells
T3 sequence (P31645 whole entry): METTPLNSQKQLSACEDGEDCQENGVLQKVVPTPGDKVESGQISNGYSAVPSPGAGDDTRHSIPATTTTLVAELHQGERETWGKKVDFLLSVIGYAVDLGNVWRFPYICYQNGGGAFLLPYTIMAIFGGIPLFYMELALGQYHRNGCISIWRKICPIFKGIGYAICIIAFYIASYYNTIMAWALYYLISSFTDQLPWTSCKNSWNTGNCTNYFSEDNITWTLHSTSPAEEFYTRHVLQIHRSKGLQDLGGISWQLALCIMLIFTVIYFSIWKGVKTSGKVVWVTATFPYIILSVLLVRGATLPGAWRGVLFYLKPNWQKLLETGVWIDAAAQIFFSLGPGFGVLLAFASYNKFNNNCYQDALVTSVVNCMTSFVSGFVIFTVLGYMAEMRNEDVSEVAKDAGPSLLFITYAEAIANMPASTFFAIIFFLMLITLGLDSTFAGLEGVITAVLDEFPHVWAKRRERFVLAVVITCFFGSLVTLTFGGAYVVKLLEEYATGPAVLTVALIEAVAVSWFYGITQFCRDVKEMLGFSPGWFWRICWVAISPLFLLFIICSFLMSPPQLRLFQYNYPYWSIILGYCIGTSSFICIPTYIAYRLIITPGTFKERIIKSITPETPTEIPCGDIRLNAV

SERT [3] = target: T3, SERT; details: read-out: IC50 SERT; QSAR data matrix; unit inferred; compounds not tested in this paper, source not given, presumably ref Mayer et al., 2019; cited from earlier work
[4] = LC-MS/MS detection of mephedrone metabolites in a human urine sample; assay type: in vivo; set-up: key to Detected in urine samples: detected (+); not detected (−); details: for detection in human urine sample: achiral LC-MS/MS, after enzymatic workup; for Detected in urine samples: human urine, mephedrone user, only syn- and anti-configurations could be separated
From the text: The biological specimen, human urine, was provided by the Department of Chemical Analytics, Seibersdorf Laboratories GmbH. The sample was taken from a subject postmortem in a fatal case of drug overdose. […] Given this fact, we assumed that also the metabolites would be detectable in sufficient quantity. To evaluate the presence of any metabolites whatsoever in the urine sample we designed an achiral separation protocol for liquid chromatography and we coupled it with triple quadrupole mass spectrometer. The advantage of LC-MS/MS system is that even if two substances have the same retention time, they can still be differentiated by their fragmentation pattern. More in details, the samples for urine analysis were analyzed using a CTC HTS PAL autosampler (CTC Analytics) and a Thermo Surveyor LC system (Thermo) interfaced to a TSQ Quantum Discovery Max triple quadrupole mass spectrometer (Thermo). A C18 security guard cartridge (4 × 2 mm) (Phenomenex) was used for sample clean-up and the analytical HPLC column was a Kinetex 1.7 μm C18 100Å 150 × 2.1 mm (Phenomenex) and Cortecs T3, 2.7 μm C18 120Å 100 × 2.1 mm (Waters). Column selection was performed by a Maylab Mistraswitch column selector (Maylab Analytical Instruments). The solvents were 0.2% formic acid in water (A) and acetonitrile (B). The temperature of the analytical column was maintained at 40°C. The mass spectrometer was equipped with heated electrospray ionization (ESI) source and was operated in positive ionization mode with a spray voltage set at 4500V. The capillary temperature was adjusted to 320°C. The sheath and auxiliary gas (nitrogen) flow rate was 25 and 10 arbitrary units, respectively. The system was operated in selected […] (srm) mode with argon as the collision gas at a pressure of 1.5 mTorr. For the achiral separation, stem solutions were prepared by weighing the reference substances in volumetric flasks and filling them up with MeOH (99.9%; HPLC grade), creating average concentration of 1 mg/ml. Then dilution solutions were prepared as follows: 10 μL of stem solution was filled up to 5 ml MeOH, creating dilution […]. Samples were prepared from dilution solutions by taking out 25 μL and mixing it together with 25 μL of ISP, 50 μL ISS and filled up to 1 ml with Milli-Q water. The final sample solvent was water/MeOH 9/1. For the enzymatic workup, phosphate buffer (1 ml, 0.8M, pH = 7), β-glucuronidase/arylsulfatase (25 μL) and β-glucuronidase (25 μL) were added to the solutions. The solutions were heated at 50°C during 1 h upon which EtOAc (7 ml) was added. The solution was put into shaker for 10min, following centrifugation for 5 min. The organic phase was separated and evaporated into dryness in stream of pressurized nitrogen. The residue was taken up in 150 μL MQ-water/MeOH 9/1 + 0.4% formic acid, heated at 50°C for 5 min and subjected to LC-MS analysis.
If on one hand the synthesis of putative metabolites allows the establishment of structure activity relationships, on the other hand, it provides pure material to evaluate their presence in human urine samples and determine their pharmacological relevance. To determine the presence of any metabolites in the urine sample, we have designed an achiral separation protocol and coupled the liquid chromatography with triple quadrupole mass spectrometer (LCMS/MS). With the LCMS/MS system two substances with the same retention time, can still be differentiated by their fragmentation pattern. Since metabolites carrying a primary alcohol functionality can form glucuronide and sulfate conjugates, we performed an enzymatic workup of the urine sample in order to cleave them. Apart from the parental drug, we detected 4-OH-MMC and 4-MC (nor-meph) which we have both already identified in our previous publication ([Mayer et al., 2019]), and the two previously uncharacterized metabolites 4-COOH-MC and dihydro-4-MC (Figure 6). […]

DAT [5] = target: T1, DAT; assay: Transporter electrophysiology (whole cell patch clamp), HEK293 cells stably expressing DAT; assay type: cell-based; details: compound applied at 30 µM, -60 mV
Protocol: (§1) Human embryonic kidney 293 cells (HEK293 cells) were cultivated in Dulbecco’s Modified Eagle Medium (DMEM), containing 10% heat-in- activated fetal calf serum (FCS), streptomycin (100 μg x 100 ml−1) and penicillin (100 U × 100 ml−1). Geneticin (50 μg x mL−1) was added to select HEK293 cells stably expressing the human isoforms of DAT, NET and SERT as described earlier ([Mayer et al., 2016a]). Cell lines were maintained in a sub-confluent state in humidified atmosphere (37°C, 5% CO2). For uptake inhibition experiments cells expressing the desired transporter were seeded the days before the experiment (40,000 cells per well) or two days before the experiments (20,000 cells per well) onto poly-D-lysine (PDL) coated 96-well plates 24 h prior to the experiment. In the case of transporter-electrophysiology cells were cultivated in 10 cm dishes and 24 h before the experiments they were detached, and seeded at low density onto PDL-coated 3 cm dishes.
(§2) Transporter electrophysiology was conducted by the means of whole cell patch clamp in HEK293 cells stably expressing DAT or SERT. Substrate-induced currents were recorded under voltage clamp (−60 mV). Cells were continuously superfused with a physiological external solution that contains 140 mM NaCl, 2.5 mM CaCl2, 2 mM MgCl2, 20 mM glucose and 10 mM HEPES, pH = 7.4. The pipette solution contained 133 mM potassium gluconate, 6 mM NaCl, 1 mM CaCl2, 0.7 mM MgCl2, 10 mM HEPES, 10 mM EGTA, pH = 7.2. Currents elicited by mephedrone 30 μM, were measured at room temperature (20–24°C) using an […] amplifier and pClamp 11.2 software (MDS Analytical Technologies). All the solutions perfused onto the cell were applied using a DAD-12 superfusion system and a 8-tube perfusion manifold (ALA Scientific Instruments), which allowed for rapid solution exchange. Current traces were filtered at 1 kHz and digitized at 10 kHz using a Digidata 1,550 (MDS Analytical Technologies). […] For the analysis, passive holding currents were subtracted, and the traces were filtered using a 100-Hz digital Gaussian low-pass filter.

SERT [6] = target: T3, SERT; assay: Transporter electrophysiology (whole cell patch clamp), HEK293 cells stably expressing SERT; assay type: cell-based; details: compound applied at 30 µM, -60 mV
Protocol: as §1, §2

[7] = QSAR data matrix, from IC50 DAT, read-out: pIC50 DAT (converted)
[8] = mean (95% confidence interval), non-linear regression, read-out: IC50 (µM) DAT
[9] = mean (95% confidence interval), non-linear regression, read-out: IC50 (µM) NET
[10] = IC50 (µM) SERT, mean (95% confidence interval), non-linear regression
[11] = IC50 SERT, QSAR data matrix, unit inferred
[12] = mean (95% confidence interval), non-linear regression, read-out: IC50 (µM) SERT
[13] = QSAR data matrix, unit inferred, read-out: IC50 SERT

T2 sequence (P23975 whole entry): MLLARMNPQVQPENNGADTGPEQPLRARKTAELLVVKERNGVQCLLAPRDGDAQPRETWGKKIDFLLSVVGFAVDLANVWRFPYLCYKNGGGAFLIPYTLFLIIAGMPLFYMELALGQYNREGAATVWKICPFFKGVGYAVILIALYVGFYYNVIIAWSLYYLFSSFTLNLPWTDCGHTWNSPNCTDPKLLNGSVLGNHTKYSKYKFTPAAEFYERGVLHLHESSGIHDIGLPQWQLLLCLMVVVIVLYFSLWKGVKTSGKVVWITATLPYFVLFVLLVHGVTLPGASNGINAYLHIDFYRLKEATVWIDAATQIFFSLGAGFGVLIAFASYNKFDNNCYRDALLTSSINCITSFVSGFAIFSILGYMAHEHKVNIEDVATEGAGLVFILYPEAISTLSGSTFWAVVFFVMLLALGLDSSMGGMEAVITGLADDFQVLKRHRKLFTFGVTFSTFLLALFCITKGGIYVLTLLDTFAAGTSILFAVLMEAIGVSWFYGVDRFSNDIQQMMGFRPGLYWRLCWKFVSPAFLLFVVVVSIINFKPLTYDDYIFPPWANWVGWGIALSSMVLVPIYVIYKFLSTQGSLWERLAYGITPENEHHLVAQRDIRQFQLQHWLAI
T1 sequence (Q01959 whole entry): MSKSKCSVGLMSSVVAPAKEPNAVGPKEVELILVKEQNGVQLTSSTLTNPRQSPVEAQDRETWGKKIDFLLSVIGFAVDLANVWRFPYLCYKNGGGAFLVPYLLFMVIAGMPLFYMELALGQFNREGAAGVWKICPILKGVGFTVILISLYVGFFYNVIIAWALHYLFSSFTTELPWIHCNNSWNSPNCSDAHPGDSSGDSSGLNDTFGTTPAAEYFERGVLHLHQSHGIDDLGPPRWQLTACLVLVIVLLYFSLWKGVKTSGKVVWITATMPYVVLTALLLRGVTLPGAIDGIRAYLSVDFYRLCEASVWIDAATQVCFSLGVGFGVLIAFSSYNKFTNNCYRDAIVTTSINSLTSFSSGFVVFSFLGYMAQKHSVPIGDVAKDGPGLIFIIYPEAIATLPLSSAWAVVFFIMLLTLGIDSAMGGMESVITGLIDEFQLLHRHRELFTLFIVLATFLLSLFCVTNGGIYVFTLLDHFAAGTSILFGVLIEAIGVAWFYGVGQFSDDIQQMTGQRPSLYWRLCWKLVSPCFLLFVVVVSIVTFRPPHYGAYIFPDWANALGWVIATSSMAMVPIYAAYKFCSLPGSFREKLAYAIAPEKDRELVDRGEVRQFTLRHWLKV

SMILES	IC50 (DAT [1]; [7]) [µM]	Selectivity ratio DAT/SERT (DAT [1])	IC50 (DAT [1]; [8]) [µM]	Selectivity ratio NET/DAT (human NET)	IC50 (human NET; [9]) [µM]	Detected in urine samples [4]	IC50 (SERT [2]; [12]) [µM]	other results
CN[C@H](C)C(=O)c1ccc(C)cc1 [2R-MMC, R-mephedrone, reference compound]	0.776							IC50 (human NET): 2.75 µM; IC50 (SERT [2]; pIC50 SERT, QSAR data matrix, from IC50 SERT): 74.1 µM; IC50 (SERT [3]): 74.8 µM
CNC(C)C(=O)c1ccc(CO)cc1.Cl (stereo not drawn) [4-OH-MMC, 4-OH-mephedrone, reference compound]								detection in human urine sample [4]: detected
Cc1ccc([C@@H](O)[C@@H](C)N)cc1 [Dihydro-(R,R)-4-MC]	8.13	9.26	8.05	0.44	18.1	+		IC50 (SERT [2]; [10]): 74.6 µM; IC50 (SERT [2]; [11]): 74.6 µM; DAT-mediated current (DAT [5]; listed as dihydro-(R,R)-4-MC): absence of DAT-mediated current; DAT-mediated current (DAT [5]; listed as dihydro-(R,R)-4 MC): elicited only SERT-mediated currents; SERT-mediated current (SERT [6]): elicited only SERT-mediated currents
C[C@@H](N)[C@H](O)c1ccc(CO)cc1 [Dihydro-(R,R)-4-OH-MC]	28.2	48.42	28.3	0.61	46.5	−	1370	IC50 (SERT [2]; in Figure 3, read-out: IC50(SERT)): 1400 µM; DAT-mediated current (DAT [5]): did not elicit any DAT or SERT-mediated current; SERT-mediated current (SERT [6]): did not elicit any DAT or SERT-mediated current
C[C@H](N)[C@H](O)c1ccc(CO)cc1 [Dihydro-(R,S)-4-OH-MC]	100	3.86	99.1	1.60	62	−	383	IC50 (SERT [2]; [13]): 383 µM
CN[C@@H](C)[C@H](O)c1ccc(CO)cc1 [Dihydro-(R,S)-4-OH-MMC]	85.1	5.87	84.5	1.57	53.9	−	496	IC50 (SERT [2]; [13]): 496 µM
Cc1ccc([C@H](O)[C@@H](C)N)cc1 [Dihydro-(S,R)-4-MC]	15.5	11.53	15.5	0.37	41.8	+		IC50 (SERT [2]; [10]): 178 µM; IC50 (SERT [2]; [11]): 178 µM; DAT-mediated current (DAT [5]): absence of DAT-mediated current
C[C@@H](N)[C@@H](O)c1ccc(CO)cc1 [Dihydro-(S,R)-4-OH-MC]	91.2	12.68	91.2	1.09	83.4	−	1160	
CN[C@H](C)[C@@H](O)c1ccc(CO)cc1 [Dihydro-(S,R)-4-OH-MMC]	77.6	40.99	77	1.55		−	3160	IC50 (human NET; QSAR data matrix, from IC50 NET, read-out: pIC50 NET (converted)): 50.1 µM
C[C@H](N)[C@@H](O)c1ccc(CO)cc1 [Dihydro-(S,S)-4-OH-MC]	58.9	9.92	59.2	4.71	12.6	−	588	
CN[C@@H](C)[C@@H](O)c1ccc(CO)cc1 [Dihydro-(S,S)-4-OH-MMC]	162	11.49	161	0.55	291	−	1850	
Cc1ccc(C(O)C(C)N)cc1 (stereo not drawn) [dihydro-4-MC, dihydro-4-nor-mephedrone]								detection in human urine sample [4]: detected
CNC(C)C(O)c1ccc(CO)cc1 (stereo not drawn) [dihydro-4-OH-MMC]								detection in human urine sample [4]: not found
